89 molecules from a melting point compilation (Tetko et al.; mined from patent text by program, amines drawn as free bases though some values may be those of a salt) can be followed below.

Non-standard residues stand in square brackets, D forms with d. Residues, ends and D or L forms follow the SMILES beside them. *: point of attachment. 1Nal = N[C@@H](Cc1cccc2ccccc12)C(=O)O; Cbz = O=C(OCc1ccccc1)*

As a reminder, the melting point is the temperature of the solid-liquid transition.

Consider `CN(C)C1C(O)CC2C3CCc4cc(O)ccc4C3CCC21C` (centres undefined), for which the melting point lay in the range of 240 to 242 °C.

Molecule `CNCc1cc(=O)oc2cc(OC)ccc12` showed a melting point of 109 to 110 °C. In turn, `Cc1c(Cc2ccc(C(C)C)cc2)c2c(c(C)c1NC(=O)CC(C)(C)C)CC(C)(CN1CCCC1)O2` (centres undefined) displayed a melting point of 143 to 144 °C. In turn, `CN(c1cccc2cc(C3=NCC(C)(CN4CCC5(CC4)OCCO5)S3)[nH]c12)S(=O)(=O)c1cccs1` (centres undefined) showed a melting point of 172 to 173 °C.

With `O=S(=O)(c1ccc(Cl)cc1)N1CCCC1c1cccc(F)c1` (racemic), the melting point amounted to 126 °C. In turn, `CCCCNC(=O)NC(Cc1ccccc1)C(=O)Nc1c(F)cc(F)cc1F` (centres undefined) showed a melting point of 217 to 218 °C.

In turn, `CCCOC1C(O)C(CO)OC1n1cnc2c(NC(=O)C(C)C)nc(NC(=O)C(C)C)nc21` (centres undefined) yielded a melting point of 140 to 142 °C. In turn, `CCOC(=O)C(C#N)=Cc1ccc(OC)c2c1CC(C)(C)O2` registered a melting point of 112 to 117 °C.

For the molecule `O=C1NCC(Cc2ccccc2OCc2ccccc2)O1` (centres undefined), the melting point was 90 to 91 °C. `N#CC1(Nc2ccccc2)CCN(C2CCC(c3ccc(F)cc3)(c3ccc(F)cc3)CC2)CC1` came in with a melting point of 139 to 140 °C. Take `CC(C)=NNC1=NCc2c[nH]c3cccc1c23`: the melting point is 200 to 201 °C. Under `Cc1nc(NC(=O)NS(=O)(=O)C(Cl)C(C)Cl)nc(C)c1Cl` (centres undefined) stands 161 to 162 °C; under `Nc1ncc(-c2ccc(F)c3ccccc23)o1`, 171 to 174 °C. Under `Cn1c(C(F)(F)F)cc(=O)n(-c2cc(OCC(F)(F)F)c(Cl)cc2F)c1=O` stands 136 to 138 °C; under `CC(=O)N1C(C)(C)CC(Oc2nc(Cl)nc(N3C(C)(C)CCCC3(C)C)n2)CC1(C)C`, 114 to 116 °C; under `N#Cc1ccccc1OCCCN1CCC(NC(=O)C2CCCCC2)CC1`, 110 to 112 °C. Turning to `CN1C(=O)[C@]2(C)CC[C@](NCC(=O)N3CCC[C@H]3C#N)(C1=O)C2(C)C`, the melting point is 141 to 144 °C. The value for `CC1CN(C(=O)c2ccc(Cl)cc2Cl)c2ccc(Cl)cc2C1=O` (centres undefined) was 157 to 159 °C. The value for `CCOC(=O)C=Cc1cc(-c2csc(-c3ccc(OCC)c(OCC)c3)n2)cc(C(=O)OCOC)c1OCOC` was 94 to 96 °C. Under `CN(CCO)c1cccc2c1C(=O)c1c(cccc1N(C)CCO)C2=O` stands 168 to 178 °C; under `Cc1ccc(C(=O)NC(=O)Nc2ccc3c(c2)NC(=O)/C3=C\c2ccc[nH]2)cc1`, 276 to 281 °C. In the case of `CN(C)CC1CN(C)C(=S)c2cccnc2O1` (centres undefined), the melting point lay in the range of 178 to 179 °C.

For the molecule `CC(C)(C)OC(=O)NN=C1CCN(C(=O)OC(C)(C)C)CC1`, the melting point is 172 to 174 °C. Take `O=C(O)CCc1nc(C(=O)O)ccc1O`: the melting point is 210 to 212 °C. `CC(=O)c1cccc(-c2nc3sccn3c2-c2ccnc(N[C@@H]3CCCN(S(=O)(=O)c4ccc(Cl)cc4)C3)n2)c1` came in with a melting point of 124 to 127 °C. The molecule `CCOc1ccc(C(=O)CCC(=O)Nc2cc(OCc3ccccc3)cc(-c3ccccc3)n2)cc1OCC` showed a melting point of 156 to 157 °C.

`COC(=O)c1c(Br)c(Br)c(C(=O)OC)c(Br)c1Br` gave a melting point of 207 to 210 °C. Under `c1ccc2[nH]c(-c3cc[nH]n3)nc2c1` stands 335 to 338 °C; under `CCCCS(=O)(=O)c1c(Cl)nc(Cl)nc1Cl`, 71 to 72 °C. Under `COc1ccc(CC2CCC3=C(C2)CC(C)C(=O)N3)cc1` (centres undefined) stands 182 to 184 °C; under `Cc1ccc(-c2cc(NCCN(C)C)c3ccccc3n2)s1`, 103 to 105 °C. `C=CC(=O)OCCCCCCCCCCCOc1ccc(O)cc1` came in with a melting point of 72 to 74 °C.

Molecule `ClCc1nc(Cl)c2ccsc2n1` displayed a melting point of 66 to 68 °C.

`NS(=O)(=O)c1ccc(-n2nc(C(F)F)cc2-c2ccc3c(c2)OCO3)cc1` came in with a melting point of 214 to 218 °C. Under `COc1cc(COc2nn(-c3ccccc3)cc2/C=C/C#N)ccc1OCc1nc(-c2ccco2)oc1C` stands 177 to 178 °C; under `COc1ccc2c(C(=O)O)cc3cc4c(cc3c2c1)OCO4`, 293 to 295 °C. The value for `CC(C)(C)OC(=O)NC1CCCCc2cc(OCC3CCCCC3)c(C(N)=O)cc21` (centres undefined) was 193 to 194 °C. For `ClCc1ccnc(OCc2cn3c(Cl)cccc3n2)c1`, the melting point is 118 to 119 °C. Regarding `CCNc1ccc(C2(C)C(=O)c3c(Cl)cc(Cl)cc3N(Cc3ccccc3)C2=O)cc1` (centres undefined), the melting point lay in the range of 148 to 149 °C. The value for `O=C(OCCOc1ccc2ncnn2n1)N1CCN(C(c2ccccc2)c2ccccc2)CC1` was 157 to 159 °C; that for `CCCCn1cc2c(n1)c(N)nc1ccccc12` was 194 to 195 °C; that for `COCCc1nc2c(N)nc3cc(OCc4ccccc4)ccc3c2n1CC(C)(C)O` was 185 to 186 °C. `CCN(CC)C(=O)c1ccc2ccccc2c1-c1ccc(C(F)(F)F)cc1` displayed a melting point of 111 to 112 °C. With `Nc1ccccc1C(=O)NCCN1CCC2(CC1)C(=O)NCN2c1ccc(F)cc1`, the melting point amounted to 195 °C. Turning to `O=C(O)[C@@H]1Cc2ccccc2N1c1ccc(Cl)nn1`, the melting point was in the range of 211 to 212 °C. The value for `Cn1c2cc(Cl)ccc2c2c(C=O)nn(-c3ccccc3)c(=O)c21` was 235 to 236 °C; that for `CCC1(CC)C(=O)N(C(C)(C)C)CC(C)(C)N1C(C)c1ccc(C(C)=O)cc1` (centres undefined) was 91 to 94 °C; that for `O=C(O)c1sc2ccc3c(c2c1Cl)O[C@@H](CO)CO3` was 236 to 237 °C.

As to `CSCOC1CCC2C3CCC4=CC(=O)C=CC4(C)C3(F)C(OC(C)=O)CC12C` (centres undefined), the melting point was 142 to 143 °C. The value for `N#CC1(c2ccc(F)cc2)C=CC(N2CCN(c3cccnn3)CC2)CC1` (centres undefined) was 189 °C; that for `Nc1ccnc(CSCCN2C(=O)c3ccccc3C2=O)n1` was 131 to 133 °C; that for `Cc1nn(CCOc2ccc(C=C3SC(=O)NC3=O)cc2)c(=O)c2ccccc12` was 202 °C. The value for `CN1CCN(CCO)C1=Nc1ccccc1N1CCOCC1` was 129 to 131 °C; that for `CC(=O)c1cc(Cl)c2c(c1Cl)C(C)(C)CCS2(=O)=O` was 154 to 155 °C; that for `O=C1CSC(=S)N1N=c1sc2ccc([N+](=O)[O-])cc2s1` was 315 °C.

In the case of `COc1ccc(OC)c(C(O)CNC(=O)CN)c1` (centres undefined), the melting point was in the range of 106 to 107 °C. In the case of `c1ccc(COc2cccc(OCc3ccccc3)c2OCc2ccccc2)cc1`, the melting point lay in the range of 67 to 68 °C.

The molecule `O=C(N1CCCC(c2cccc3[nH]ccc23)C1)C(F)(F)F` (centres undefined) registered a melting point of 170 °C.

Consider `Cc1c(-c2ccccc2F)[nH]c(NCc2ccccc2)c1C#N`, for which the melting point was 151 to 152 °C. In the case of `Cc1nc(-c2ccc(C(F)(F)F)cc2)sc1COc1ccc(/C=C/C(=O)O)cc1`, the melting point lay within 226 to 228 °C. With `O=C(NC1CCC1)c1ccc2nonc2c1`, the melting point lay in the range of 175 to 176 °C.

Regarding `CCCn1nc2c(N)nc3ccccc3c2c1CCCCS(=O)(=O)NC`, the melting point fell in the range of 166 to 169 °C. The value for `Cc1ccc(-c2nc(N)nc(N)c2[N+](=O)[O-])o1` was 196 to 197 °C. In turn, `Cc1cccc(-c2ncc(NC(=O)OCc3ccccc3)c(=O)n2CC(=O)O)c1` returned a melting point of 183 to 185 °C.

The molecule `COc1cc(C(=O)NS(=O)(=O)c2ccccc2C)ccc1Cc1cn(CC(=O)N(C)C)c2ccc(NC(=O)CC3CCCC3)cc12` gave a melting point of 215 to 218 °C. `O=C(c1cccs1)c1cc2c(c(Cl)c1Cl)OC(CO)C2` (centres undefined) gave a melting point of 65 to 68 °C. The value for `O=C(C=C1CCCCN1)c1ccccc1` was 59 to 60 °C; that for `COC(=O)c1ccccc1-c1cc(-c2ccc(Cl)cc2Cl)no1` was 94 to 96 °C.

With `N=C(N)c1ccc(-c2ccc(N3CCCN(CC(=O)O)C3=O)cc2)cc1`, the melting point is greater than 200 °C. Regarding `NC1=NN(c2ccc(C(=O)C(F)(F)F)cc2)C(c2ccccc2)C1` (centres undefined), the melting point fell in the range of 214 to 216 °C. Under `Cc1nc(-n2cn[nH]c2=O)sc1C(=O)NCc1cccnc1` stands 278 to 279 °C; under `Nc1cccnc1Nc1cc(Cl)ccc1C(=O)c1ccccc1`, 153 to 155 °C. The value for `CC(C)C[C@@H](C=O)NC(=O)[C@H](Cc1c[nH]cn1)NC(=O)[C@H](Cc1cccc2ccccc12)NC(=O)OCc1ccccc1` (Cbz-[1Nal]-His-Leu-aldehyde) was 106 to 108 °C; that for `COc1nc(SC)nc(OC)c1C=CC(C)=O` was 112 °C. The value for `Cc1c(N2CC(O)C2)c(F)cc2c(=O)n(N)c(=O)n(C3CC3)c12` was 212 to 214 °C; that for `CCOC(=O)C(=CNc1nonc1C)C(=O)c1cc(F)c(F)cc1F` was 104 to 107 °C; that for `O=S(=O)(Nc1ccc(Cl)cc1)C(Cl)=C(Cl)Cl` was 73 to 76 °C.

In turn, `COCc1c(C(=O)OC(C)C)ncc2[nH]c3cccc(Oc4ccccc4)c3c12` registered a melting point of 201 to 203 °C.

In turn, `Clc1cccc(Nc2ncnc3[nH]nc(NCc4ccccc4)c23)c1` came in with a melting point of 214 to 217 °C.

`COCc1nc2ncccc2n1Cc1ccc(C(=O)N(C(C)C)C2CCCCC2)cc1OC`: the melting point lay within 117 to 118 °C.

`CCCCc1cc(OCc2ccc(-c3ccccc3C(=O)OC)cc2)c2ccccc2n1`: the melting point came to 105 °C. The value for `CN1C(=O)[C@H](NC(=O)C2Cc3ccccc3O2)N=C(c2ccccc2)c2ccccc21` (some centres undefined) was 141 to 180 °C; that for `N#Cc1cnn2c1NCCC2c1cccc(F)c1` (centres undefined) was 146 to 148 °C; that for `Cc1cc(=O)c2cc(N)ccc2s1` was 265 °C.

Molecule `NC(=O)CCc1cnoc1-c1ccccc1` registered a melting point of 151 to 152 °C. Under `COCCOc1nc(NC(C)=O)nc2ccc(Cl)nc12` stands 135 °C; under `COC(=O)[C@H]1C[C@H](NC(=O)Cc2ccccc2)c2c(Cl)cc(Cl)cc2N1` (relative stereo), 226 to 228 °C; under `COC(=O)C(C)(C)Oc1ccc(-c2ccc(CCNC(=O)c3cc(Cl)ccc3OC)cc2)cc1`, less than 20 °C. On to `COc1cc(OC)nc(OC(C(=O)O)C2CCc3ccccc32)n1` (centres undefined), for which the melting point was 113 to 117 °C.
